In patent publication US10215751B2, “Carboxy X rhodamine analogs” (PROMEGA CORPORATION, priority 2011, dated 2019):

Biological target: T1, NanoLuc luciferase-PKC alpha fusion protein (Homo sapiens, UniProt P17252)
T1 construct: expressed in transfected cells; host or cells: HEK293 cells, transient transfection with pF5 plasmid
Assay: BRET negative control with cells expressing NanoLuc fused to an irrelevant kinase
Assay type: cell-based
Settings: HEK293 cells expressing NanoLuc-PKCalpha (negative control)
Experimental: HEK293 cells (20,000 cells per well in 96-well format) were transiently transfected (Fugene HD, Promega Corporation) with pF5 plasmid DNA (Promega Corporation) encoding a NanoLuc® luciferase-p38alpha kinase fusion protein. As a negative control, some cells were transfected with a pF5 plasmids DNA encoding a NanoLuc luciferase-PKC alpha fusion protein. On the second day post transfection, the cell medium was replaced with serum-free Opti-MEM (Life Technologies) with or without 50 ug/ml digitonin. […] A furimazine substrate (PBI 3939), a substrate for the NanoLuc luciferase, then was added to cells to a final concentration of 20 uM. BRET ratios were recorded using a Varioskan luminometer at the following wavelengths: 630 nm (acceptor)/450 nm (donor). Acceptor/donor values were used to determine BRET ratio (FIGS. 21 and 22).

With `Cc1ccc(-n2nc(C(C)(C)C)cc2NC(=O)Nc2ccc(OCCN3CCOCC3)c3ccccc23)cc1` [BIRB796, reference compound] the “Effect of unlabeled BIRB796 on BRET signal with PBI 4838” value was “not affected”.
